pIC50: −log10 of the molar value.
How the values were obtained:
Assay type in all cases: ADME, subcellular
[1] = Drug metabolism in human liver S9 fraction assessed as metabolite 11-COOH-THC formation at 1 uM incubated for 10 mins in presence of NAD+ by LC-MS/MS analysis; settings: s9, 10 min
[2] = Drug metabolism in human liver S9 fraction assessed as reduction in metabolite 11-COOH-THC formation by measuring WIN18446 IC50 incubated for 10 mins in presence of NAD+ by LC-MS/MS analysis
[3] = Drug metabolism in human liver S9 fraction assessed as reduction in metabolite 11-COOH-THC formation by measuring hydralazine IC50 incubated for 20 mins in presence of NAD+ by LC-MS/MS analysis
[4] = Drug metabolism in human liver S9 fraction assessed as metabolite 7-COOH-CBD formation at 1 uM incubated for 20 mins in presence of NADPH and NAD+ by LC-MS/MS analysis; settings: s9, 20 min
[5] = Drug metabolism in human liver cytosol assessed as reduction in metabolite 7-COOH-CBD formation by measuring WIN18446 IC50 in presence of NAD+ measured after 30 mins by LC-MS/MS analysis
[6] = Drug metabolism in human liver cytosol assessed as metabolite 7-COOH-CBD formation at 1 uM incubated for 20 mins in presence of NADPH and NAD+ by LC-MS/MS analysis
[7] = Drug metabolism in human liver S9 fraction assessed as metabolite 7-COOH-CBD formation at 1 uM incubated for 20 mins in presence of NADPH by LC-MS/MS analysis; settings: s9, 20 min

Compound: CCCCCc1cc(O)c2c(c1)OC(C)(C)[C@@H]1CCC(CO)=C[C@@H]21
- Drug metabolism [1]: Metabolite_Detected
- pIC50 [2]: < 4.22
- pIC50 [3]: 7.28

Compound: C=C(C)[C@@H]1CCC(CO)=C[C@H]1c1c(O)cc(CCCCC)cc1O
- Drug metabolism [4]: Metabolite_Detected
- pIC50 [5]: 6.55
- Drug metabolism [6]: Metabolite_Detected
- Drug metabolism [7]: Metabolite_Notdetected
